Laboratory results as given in ChEMBL document CHEMBL1201862, “PubChem BioAssay data set” (2004).
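Where inhibition never reached the appropriate level, the endpoint shown equals the highest concentration tested. Otherwise, values were interpolated linearly from a five-concentration, 48-hour dose response in 96-well plates. At the GI50, growth is halved.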 Calls of active or inactive are those of the source. Cut-off read from the data, not from the text of the source: active = GI50 up to about 1.1 µM and inactive = higher.

Tests used:
Test in all cases: NCI-60 cell line screen, 48 h
SK-MEL-5 = system: SK-MEL-5
UACC-257 = system: UACC-257
OVCAR-5 = system: OVCAR-5
A498 = system: A498
M14 = system: M14
SK-MEL-2 = system: SK-MEL-2
MCF7 = system: MCF7
COLO 205 = system: COLO 205
NCI-H23 = system: NCI-H23
K562 = system: K562
HL-60 = system: HL-60
HT-29 = system: HT-29
HOP-62 = system: HOP-62
HCT-15 = system: HCT-15
BT-549 = system: BT-549
RPMI-8226 = system: RPMI-8226
OVCAR-8 = system: OVCAR-8
PC-3 = system: PC-3
MDA-MB-435 = system: MDA-MB-435
MDA-N = system: MDA-N
OVCAR-4 = system: OVCAR-4
SN12C = system: SN12C
IGROV-1 = system: IGROV-1
TK-10 = system: TK-10
CAKI-1 = system: CAKI-1
SF-268 = system: SF-268
MDA-MB-231 = system: MDA-MB-231
CCRF-CEM = system: CCRF-CEM
UACC-62 = system: UACC-62
NCI-H460 = system: NCI-H460
ACHN = system: ACHN
HOP-92 = system: HOP-92
RXF 393 = system: RXF 393
SK-MEL-28 = system: SK-MEL-28
SNB-75 = system: SNB-75
SNB-19 = system: SNB-19
MOLT-4 = system: MOLT-4
KM12 = system: KM12
OVCAR-3 = system: OVCAR-3
DU-145 = system: DU-145
UO-31 = system: UO-31
Malme-3M = system: Malme-3M
NCI-H226 = system: NCI-H226
SF-539 = system: SF-539
EKVX = system: EKVX
SW-620 = system: SW-620
A549 = system: A549
NCI/ADR-RES = system: NCI/ADR-RES
LOX IMVI = system: LOX IMVI
SF-295 = system: SF-295
Hs-578T = system: Hs-578T
T47D = system: T47D
NCI-H522 = system: NCI-H522
U-251 = system: U-251
SK-OV-3 = system: SK-OV-3
786-0 = system: 786-0
HCT-116 = system: HCT-116

c1ccc2c(c1)SC1Sc3ccccc3[S+]21 (configuration not stated)
GI50 (SK-MEL-5): 7.28 µM (inactive) | GI50 (UACC-257): 17.3 µM (inactive) | GI50 (OVCAR-5): 27 µM (inactive) | GI50 (A498): 33.3 µM (inactive) | GI50 (M14): 21.5 µM (inactive) | GI50 (SK-MEL-2): 34.8 µM (inactive) | GI50 (MCF7): 25.1 µM (inactive) | GI50 (COLO 205): 11.1 µM (inactive) | GI50 (NCI-H23): 18.2 µM (inactive) | GI50 (K562): 6.07 µM (inactive) | GI50 (HL-60): 19.8 µM (inactive) | GI50 (HT-29): 27.2 µM (inactive) | GI50 (HOP-62): 31.6 µM (inactive) | GI50 (HCT-15): > 49.9 µM | GI50 (BT-549): 20.1 µM (inactive) | GI50 (RPMI-8226): 12.9 µM (inactive) | GI50 (OVCAR-8): 21.5 µM (inactive) | GI50 (PC-3): 28.3 µM (inactive) | GI50 (MDA-MB-435): 18.8 µM (inactive) | GI50 (MDA-N): 22.4 µM (inactive) | GI50 (OVCAR-4): 41.3 µM (inactive) | GI50 (SN12C): 5.96 µM (inactive) | GI50 (IGROV-1): 22 µM (inactive) | GI50 (TK-10): 18.4 µM (inactive) | GI50 (CAKI-1): 17.8 µM (inactive) | GI50 (SF-268): 18.5 µM (inactive) | GI50 (MDA-MB-231): 23.7 µM (inactive) | GI50 (CCRF-CEM): 16.5 µM (inactive) | GI50 (UACC-62): 17.2 µM (inactive) | GI50 (NCI-H460): 29.5 µM (inactive) | GI50 (ACHN): 14.1 µM (inactive) | GI50 (HOP-92): 10.4 µM (inactive) | GI50 (RXF 393): > 45.1 µM (inactive) | GI50 (SK-MEL-28): 16.1 µM (inactive) | GI50 (SNB-75): 38.4 µM (inactive) | GI50 (SNB-19): > 81.1 µM (inactive) | GI50 (MOLT-4): 13.4 µM (inactive) | GI50 (KM12): 16.4 µM (inactive) | GI50 (OVCAR-3): 19.5 µM (inactive) | GI50 (DU-145): 21.6 µM (inactive) | GI50 (UO-31): 20.8 µM (inactive) | GI50 (Malme-3M): 2.98 µM (inactive) | GI50 (NCI-H226): 19.9 µM (inactive) | GI50 (SF-539): 23.2 µM (inactive) | GI50 (EKVX): 22 µM (inactive) | GI50 (SW-620): 25.2 µM (inactive) | GI50 (A549): 27.4 µM (inactive) | GI50 (NCI/ADR-RES): 19.9 µM (inactive) | GI50 (LOX IMVI): 18.5 µM (inactive) | GI50 (SF-295): 53.2 µM (inactive) | GI50 (Hs-578T): 64.9 µM (inactive) | GI50 (T47D): 12.5 µM (inactive) | GI50 (NCI-H522): 6.53 µM (inactive) | GI50 (U-251): 20.6 µM (inactive) | GI50 (SK-OV-3): > 100 µM (inactive) | GI50 (786-0): 25.9 µM (inactive) | GI50 (HCT-116): 22.7 µM (inactive)
